Measurements as given in ChEMBL document CHEMBL1145885, “Synthesis and GABA(A) receptor activity of a 6,19-oxido analogue of pregnanolone” (Bioorg Med Chem Lett, 2003).
The source made the active and inactive calls. The calls are words filed in the database; no cut-off is given here.

Assays:
[1] = biological target: GABA-A receptor; anion channel (Homo sapiens) (UniProt P14867+P47870+P18507+P28472+P48169+Q99928+Q9UN88+P34903+O00591+O14764+Q8N1C3+P18505+P78334+P47869+P31644+Q16445); assay: GABA-induced 36Cl- influx in hamster cerebral cortex synaptoneurosomes at 0.1 uM; format: functional, tissue-based; conditions: Cricetulus griseus
Cricetinae gen. sp. = assay: Compound was tested for reduction of 3-mercaptopropionic acid induced seizures in hamsters at 20 mg/kg; Active; format: functional, organism-based; design: dose 20 mg/kg; conditions: Cricetulus griseus

## CC(=O)[C@H]1CCC2C3CC4OC[C@@]5(CC[C@@H](O)C=C45)C3CC[C@@]21C (some centres not stated)
[1]
  Activity: Active
Cricetinae gen. sp.
  Activity: Active
